Values belong to the compound of their own block, whether it stands above or below them. No end group written: not given here.
Assays:
taf14Δ cells [1] = details: ref Zhang et al. 2004; cited from earlier work
taf14Δ cells [2] = experiment: Spotting assay, sensitivity to DNA-damaging agents; format: cell-based, S. cerevisiae; details: Supplemental Fig. S3D
Yaf9 YEATS domain = details: capacity to bind in vitro; ref Li et al. 2014; cited from earlier work
[3] = biological target: T1, Taf14 YEATS (residues 1–132) (Saccharomyces cerevisiae, UniProt P35189); experiment: NMR chemical shift perturbation; format: binding, S. cerevisiae; details: for amide resonance changes / interaction: 15N-labeled Taf14 YEATS (1–132), peptide titration
T1 sequence (P35189 1-132): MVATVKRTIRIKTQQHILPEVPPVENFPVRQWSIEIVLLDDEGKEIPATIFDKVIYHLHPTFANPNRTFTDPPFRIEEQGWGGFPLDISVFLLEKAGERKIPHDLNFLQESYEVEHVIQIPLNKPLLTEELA

[4] = test system: taf14Δ strain (BY4741 background); experiment: Spotting assay on 6-azauracil medium; format: cell-based, S. cerevisiae; details: Fig. 4F
[5] = 1H,15N HSQC, Supplemental Fig. S2A

Compound: NC(=O)NO [HU, hydroxyurea]
sensitivity of taf14Δ cells (taf14Δ cells [1]): sensitive | sensitivity of taf14Δ strain (taf14Δ cells [2]): sensitivity

Compound: H3K27ac: H3 peptide acetylated at Lys27 (ATKAARK(Ac)SAPA)
preference of Yaf9 YEATS domain (Yaf9 YEATS domain): capacity to bind

CSP magnitude relative to H3K9ac ([3]; 1H,15N HSQC, Supplemental Fig. S2B): smaller in magnitude | binding relative to H3K9ac ([3]; inferred from CSP magnitude, Supplemental Fig. S2B): weaker
Compound: H3K27ac21–31: H3K27ac21–31 peptide (ATKAARK(Ac)SAPA)

amide resonance changes / interaction ([3]; 1H,15N HSQC): strong interaction
Compound: H3K9ac1–12: H3K9ac1–12 peptide

binding relative to H3K9ac1–12 [3, 5]: slightly decreased
Compound: H3K9ac5–13: H3K9ac5–13 peptide (Ac-QTARK(Ac)STGG)
resonance perturbation pattern relative to H3K9ac1–12 [3, 5]: nearly identical resonance perturbation pattern

Compound: phleomycin
sensitivity of taf14Δ strain (taf14Δ cells [2]): sensitivity

Compound: O=c1cn[nH]c(=O)[nH]1 [6-AU, 6-azauracil]
rescue of 6-AU growth by taf14W81A ([4]; taf14Δ expressing taf14W81A): unable to rescue | rescue of 6-AU sickness by exogenous TAF14 ([4]; taf14Δ expressing wild-type TAF14): could rescue

Compound: CC(=O)NCCCC[C@H](N)C(=O)O [acetylated lysine]
amide resonance changes / interaction ([3]; 1H,15N HSQC): CSPs primarily in an acetyllysine-binding pocket

Compound: COS(C)(=O)=O [MMS, methane methylsulfonate]
sensitivity of taf14Δ cells (taf14Δ cells [1]): sensitive | effect of Taf14 YEATS disruption on response to agent (taf14Δ cells [2]; taf14Δ expressing taf14W81A): significantly impaired the response

From article PMC4573853 (Genes & Development, 2015)
